Experimental data from US20250221405A1, “ROOT NODULE FORMATION-PROMOTING COMPOSITION, AND ROOT HAIR FORMATION-PROMOTING COMPOSITION” (KANEKA CORPORATION, priority 2022, published 2025).

Assays:
[1] = system: soybeans (Fukuyutaka); assay: Experimental Example 2: soil irrigation with composition comprising rhizobium materials, number of root nodules; type: in vivo, soybean; details: Table 2-2, irrigation
Procedure: (§1) For each of the following treatment, to a mixture of rhizobium materials (rhizobium and azospirillum) mixed with water at a proportion of 10 g/L, SF, SL, or RL was added in the following amount to prepare a solution comprising the rhizobium materials and SF, SL, or RL (a composition for promoting root nodule formation).
A 9 cm poly pot was filled with culture soil and seeded with three seeds of soybeans (Fukuyutaka) in each pot.
(§2) After seeding, the seeds were cultivated in a greenhouse set at 28° C. during the day (14h) and 18° C. at night (10h).
(§3) Seven days after the seeding, the soybeans in each pot were thinned to one plant, and each pot was irrigated with 4.3 ml of the composition for promoting root nodule formation (in the treatment T1, a mixture of rhizobium materials (rhizobium and azospirillum) mixed with water at a proportion of 10 g/L).
(§4) Twenty-one days after the irrigation, the roots were washed with water so as not to remove root nodules, the culture soil was removed, and then, the root nodules formed on the roots were collected.
(§5) After the seeding, each pot was fertilized with ½ Hoagland solution (50 mL) once a week. In addition, experiments were conducted on eight pots (eight plants) in each treatment.
(§6) A plurality of experiments were conducted by changing the type of the composition for promoting root nodule formation and the like. Tables 2-1 and 2-2 show the date of seeding, the date of irrigating, the date of investigating the number of root nodules, the composition for promoting root nodule formation, and the investigation result of the number of root nodules. Note that the number of root nodules is indicated by a relative value with T1 taken as 100, with a numerical value in parentheses indicating the average number of root nodules actually measured (pieces/plant).

[2] = system: soybeans (Fukuyutaka); assay: Experimental Example 1: seed coating, number of root nodules; type: in vivo, soybean; details: Table 1-2
Procedure: (§7) A solution of SF, SL, or RL dissolved in water (a composition for promoting root nodule formation) as the following amount in each of the following treatments was prepared. The seeds of soybeans (Fukuyutaka) were coated using the solution in an amount of 800 μL/100 g seed to obtain coated seeds.
(§8) A 9 cm poly pot was filled with culture soil and seeded with three coated seeds in each pot.
(§9) After seeding, the coated seeds were cultivated in a greenhouse set at 28° C. during the day (14h) and 18° C. at night (10h).
Seven days after the seeding, the soybeans in each pot were thinned to one plant, and each pot was irrigated with 4.3 ml of a mixture of rhizobium materials (rhizobium and azospirillum) mixed with water at a proportion of 10 g/L.
as §4
After the seeding, each pot was fertilized with ½ Hoagland solution once a week. In addition, experiments were conducted on eight pots (eight plants) in each treatment.
as §6, with “1-1” for “2-1”, “1-2” for “2-2”, “nodules, the amount of SF, SL, or RL in” for “nodules,”, “Tl” for “T1”

[3] = system: soybeans (Fukuyutaka); assay: Experimental Example 3: seed coating with biosurfactant and/or KVP, number of root nodules; type: in vivo, soybean; details: Table 3-2
Procedure: as §7, with “RL and/or KVP” for “RL”
as §8, §9
Seven days after the seeding, the soybeans in each pot were thinned to one plant, and each pot was irrigated with 4.3 mL of a mixture of rhizobium materials (rhizobium and azospirillum) mixed with water at a proportion of 10 g/L.
as §4, §5
as §6, with “3-1” for “2-1”, “3-2” for “2-2”, “amounts” for “date”, “SF, SL, or RL and/or KVP in” for “seeding, the date of irrigating, the date of investigating the number of root nodules,”, “formation” for “formation,”, “Tl” for “T1”

[4] = system: soybeans (Fukuyutaka); assay: Experimental Example 4: soil irrigation with biosurfactant and/or KVP, root nodule number and weight, root weight; type: in vivo, soybean; details: with rhizobium materials
Procedure: as §1, with “treatments,” for “treatment,”
A 9 cm poly pot was filled with sterilized fertilizer-free culture soil (Heiwa) and seeded three seeds of soybeans (Fukuyutaka) in each pot.
as §2, §3, §4, §5
as §6, with “4-1” for “2-1”, “4-2” for “2-2”, “Tl” for “T1”, “(pieces/plant). In addition, fresh root nodule weight means the weight of root nodules before drying on the day of collection and is indicated by a relative value with Tl taken as 100. Dried underground part weight means the weight of roots dried for 48 hours at 80° C. and indicated by a relative value with Tl taken as 100.” for “(pieces/plant).”

[5] = system: Japanese mustard spinach (Haru no Senbatsu); assay: Experimental Example 5: foliar application, microscopic observation of root hair; type: in vivo; parameters: key: those with a significant root hair increase observed were evaluated as AA; those with a root hair increase observed were evaluated as BB; those with no root hair increase observed were evaluated as CC; those with an overall or partial root hair decrease observed were evaluated as DD
Procedure: An observation tank formed with ½ MS agar medium (0.8% agar) was prepared in an acrylic tank. Japanese mustard spinach (Haru no Senbatsu) was seeded near the surface of the observation tank. After seeding, the Japanese mustard spinach was cultivated in an incubator set in a light period (6:00-18:00, temperature 26° C., illuminance 120 μmol/m^2·s) and a dark period (18:00-6:00, temperature 18° C.). Twelve to fourteen days after the seeding, the following liquid (a composition for promoting root hair formation) was applied on the leaf surfaces of the plant body (foliar application) so as not to drip on the agar in each of the following treatments. […] A plurality of experiments were conducted by changing the date of seeding, the date of foliar application, the date of observation, and the type of the composition for promoting root hair formation and the like. Tables 5 to 9 show the composition for promoting root hair formation, the outline of operation and the observation results of root hair.

[6] = seed coating SL or RL 0.5 g/t seed (diluted 16000 times)
[7] = seed coating SL or RL 5 g/t seed (diluted 1600 times)
[8] = Table 4-2, single agent diluted 1000 times
[9] = Table 4-2, single agent diluted 10000 times

Substance	Number of Root Nodules, average number actually measured ([1]; diluted 1000 times)	Number of Root Nodules, relative value with T1 taken as 100 ([1]; diluted 1000 times)	Number of Root Nodules, average number actually measured ([1]; diluted 5000 times)	Number of Root Nodules, relative value with T1 taken as 100 ([1]; diluted 5000 times)	Number of Root Nodules, average number actually measured ([1]; diluted 10000 times)	Number of Root Nodules, relative value with T1 taken as 100 ([1]; diluted 10000 times)	Number of Root Nodules, average number actually measured ([2]; seed coating 1 g/t seed)	Number of Root Nodules, relative value with T1 taken as 100 ([2]; seed coating 1 g/t seed)	Number of Root Nodules, average number actually measured ([2]; seed coating 10 g/t seed)	Number of Root Nodules, relative value with T1 taken as 100 ([2]; seed coating 10 g/t seed)	Number of Root Nodules, average number actually measured [3, 6]	Number of Root Nodules, relative value with T1 taken as 100 [3, 6]	Number of Root Nodules, average number actually measured [3, 7]	Number of Root Nodules, relative value with T1 taken as 100 [3, 7]	Dried Underground Part Weight, relative value with T1 taken as 100 [4, 8]	Fresh Root Nodule Weight, relative value with T1 taken as 100 [4, 8]	Number of Root Nodules, average number actually measured [4, 8]	Number of Root Nodules, relative value with T1 taken as 100 [4, 8]	Dried Underground Part Weight, relative value with T1 taken as 100 [4, 9]	Fresh Root Nodule Weight, relative value with T1 taken as 100 [4, 9]	also measured
rhamnolipid [RL]	13.6 pieces/plant	116	13.6 pieces/plant	116	13.4 pieces/plant	115	16.0 pieces/plant	137	13.2 pieces/plant	113	24.6 pieces/plant	105	25.3 pieces/plant	107	105	115	19.5 pieces/plant	116	105	114	Number of Root Nodules, average number actually measured ([2]; seed coating 50 g/t seed): 15.3 pieces/plant; Number of Root Nodules, relative value with T1 taken as 100 ([2]; seed coating 50 g/t seed): 131; Number of Root Nodules, average number actually measured [4, 9]: 18.5 pieces/plant; Number of Root Nodules, relative value with T1 taken as 100 [4, 9]: 110; Observation Result (root hair) ([5]; Table 7, aqueous solution diluted 1000 times): BB; Observation Result (root hair) ([5]; Table 7, aqueous solution diluted 2000 times): BB; Observation Result (root hair) ([5]; Table 7, aqueous solution diluted 5000 times): BB
sophorolipid [SL]	15.7 pieces/plant	134	12.1 pieces/plant	104	11.9 pieces/plant	102	15.3 pieces/plant	131	13.3 pieces/plant	114	24.5 pieces/plant	104	24.9 pieces/plant	106	102	113	18.5 pieces/plant	110	185	105	Number of Root Nodules, average number actually measured ([2]; seed coating 0.1 g/t seed): 11.8 pieces/plant; Number of Root Nodules, relative value with T1 taken as 100 ([2]; seed coating 0.1 g/t seed): 101; Number of Root Nodules, average number actually measured [4, 9]: 17.8 pieces/plant; Number of Root Nodules, relative value with T1 taken as 100 [4, 9]: 105; Observation Result (root hair) ([5]; Table 6, aqueous solution diluted 1000 times): BB; Observation Result (root hair) ([5]; Table 6, aqueous solution diluted 2000 times): BB
